Measurements as given in ChEMBL document CHEMBL5543147, “Discovery and Characterization of a Novel Cereblon-Recruiting PRC1 Bridged PROTAC Degrader” (J Med Chem, 2024).
Active and inactive are the calls of the source. The calls are words filed in the database; no cut-off is given here.

How the values were obtained:
Format in all cases: cell-based
[1] = target: Protein cereblon/E3 ubiquitin-protein ligase RING2 (Homo sapiens, UniProt Q96SW2+Q99496); test: PROTAC activity at CRBN/RING1B in human K562 cells assessed as degradation of RING1B protein expression at 10 uM measured after 12 hrs by Western blotting analysis relative to control
Protein cereblon/E3 ubiquitin-protein ligase RING2, sequence (Q96SW2 whole entry): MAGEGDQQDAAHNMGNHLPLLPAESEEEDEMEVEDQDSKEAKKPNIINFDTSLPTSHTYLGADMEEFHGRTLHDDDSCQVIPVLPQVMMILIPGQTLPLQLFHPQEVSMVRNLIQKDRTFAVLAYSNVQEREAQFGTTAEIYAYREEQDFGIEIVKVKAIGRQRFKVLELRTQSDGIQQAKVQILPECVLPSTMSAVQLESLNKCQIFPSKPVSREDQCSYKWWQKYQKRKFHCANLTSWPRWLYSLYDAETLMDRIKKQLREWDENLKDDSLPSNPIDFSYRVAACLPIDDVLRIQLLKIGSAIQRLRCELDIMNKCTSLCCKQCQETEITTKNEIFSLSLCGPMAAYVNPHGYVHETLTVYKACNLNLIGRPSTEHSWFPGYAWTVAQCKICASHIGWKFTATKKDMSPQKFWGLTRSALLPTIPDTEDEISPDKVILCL
Protein cereblon/E3 ubiquitin-protein ligase RING2, sequence (Q99496 2-336 partner limits assumed): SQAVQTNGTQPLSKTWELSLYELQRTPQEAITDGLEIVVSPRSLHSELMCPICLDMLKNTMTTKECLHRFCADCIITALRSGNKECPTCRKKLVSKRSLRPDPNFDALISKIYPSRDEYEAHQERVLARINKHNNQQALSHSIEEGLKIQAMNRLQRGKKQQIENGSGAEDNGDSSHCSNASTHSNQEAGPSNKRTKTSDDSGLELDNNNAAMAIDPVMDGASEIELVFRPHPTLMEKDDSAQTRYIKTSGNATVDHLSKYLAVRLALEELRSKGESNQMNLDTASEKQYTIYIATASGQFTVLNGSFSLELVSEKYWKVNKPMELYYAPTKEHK

[2] = target: Protein cereblon/YY1-associated factor 2 (Homo sapiens) (UniProt Q96SW2+Q8IY57); test: PROTAC activity at CRBN/YAF in human K562 cells assessed as degradation of YAF protein expression at 1 to 10 uM incubated for 24 hrs by Western blotting analysis; settings: dose 1-10 µM
Protein cereblon/YY1-associated factor 2 (Homo sapiens), sequence (Q8IY57 whole entry, looked up): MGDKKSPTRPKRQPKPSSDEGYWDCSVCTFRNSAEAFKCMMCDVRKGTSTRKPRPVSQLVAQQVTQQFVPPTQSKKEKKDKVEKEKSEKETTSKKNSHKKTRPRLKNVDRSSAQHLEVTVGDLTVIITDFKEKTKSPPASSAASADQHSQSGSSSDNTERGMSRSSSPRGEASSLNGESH
Protein cereblon/YY1-associated factor 2 (Homo sapiens), sequence (Q96SW2 whole entry, looked up): as the sequence (Q96SW2 whole entry) above

[3] = target: Protein cereblon/Zinc finger protein Aiolos (Homo sapiens) (UniProt Q96SW2+Q9UKT9); test: PROTAC activity at CRBN/IKZF3 in human K562 cells assessed as degradation of IKZF3 protein at 0.1 to 10 uM incubated for 4 hrs by Western blotting analysis; settings: dose 0.1-10 µM
Protein cereblon/Zinc finger protein Aiolos (Homo sapiens), sequence (Q96SW2 whole entry, looked up): as the sequence (Q96SW2 whole entry) above
Protein cereblon/Zinc finger protein Aiolos (Homo sapiens), sequence (Q9UKT9 whole entry, looked up): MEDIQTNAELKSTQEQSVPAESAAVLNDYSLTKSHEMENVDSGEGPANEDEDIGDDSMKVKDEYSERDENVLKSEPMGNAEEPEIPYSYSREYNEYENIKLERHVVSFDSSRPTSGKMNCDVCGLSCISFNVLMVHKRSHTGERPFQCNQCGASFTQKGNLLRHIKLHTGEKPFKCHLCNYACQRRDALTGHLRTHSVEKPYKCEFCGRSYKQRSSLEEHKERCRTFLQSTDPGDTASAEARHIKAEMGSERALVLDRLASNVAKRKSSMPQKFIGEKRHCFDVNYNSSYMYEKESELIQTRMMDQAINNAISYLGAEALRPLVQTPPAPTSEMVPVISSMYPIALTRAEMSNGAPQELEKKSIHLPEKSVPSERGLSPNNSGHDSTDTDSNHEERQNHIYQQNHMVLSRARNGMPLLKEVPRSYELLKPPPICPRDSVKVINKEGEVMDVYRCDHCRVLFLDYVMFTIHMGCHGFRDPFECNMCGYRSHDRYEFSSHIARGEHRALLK

In the case of `O=C(CNc1cccc2c1C(=O)N(C1CCC(=O)NC1=O)C2=O)NCCCCN1CCN(c2ccc(-c3cnc(NCc4ccco4)n4cnnc34)cc2)CC1` (stereo not drawn), the Activity [1] is reported as 100%, the Activity [2] is reported as “inactive” and the Activity [3] is reported as “inactive”.
